Measured values from ChEMBL document CHEMBL4138237, “Activation of anti-oxidant Nrf2 signaling by enone analogues of curcumin” (Eur J Med Chem, 2018).
Active and inactive are the calls of the source.

How the values were obtained:
[1] = target: Luciferin 4-monooxygenase (Photinus pyralis, UniProt P08659); experiment: Effect on firefly luciferase activity expressed in human HepG2 cells at low concentration after 5 hrs by luminescence assay; type: ADME, cell-based; settings: hepg2, 5 h
[2] = target: T1, Nuclear factor erythroid 2-related factor 2 (Homo sapiens) (UniProt Q16236); experiment: Activation of Nrf2 (unknown origin) expressed in human HepG2 cells at 15 uM after 5 hrs by ARE-driven luciferase reporter gene assay relative to control; type: cell-based
T1 sequence (whole entry): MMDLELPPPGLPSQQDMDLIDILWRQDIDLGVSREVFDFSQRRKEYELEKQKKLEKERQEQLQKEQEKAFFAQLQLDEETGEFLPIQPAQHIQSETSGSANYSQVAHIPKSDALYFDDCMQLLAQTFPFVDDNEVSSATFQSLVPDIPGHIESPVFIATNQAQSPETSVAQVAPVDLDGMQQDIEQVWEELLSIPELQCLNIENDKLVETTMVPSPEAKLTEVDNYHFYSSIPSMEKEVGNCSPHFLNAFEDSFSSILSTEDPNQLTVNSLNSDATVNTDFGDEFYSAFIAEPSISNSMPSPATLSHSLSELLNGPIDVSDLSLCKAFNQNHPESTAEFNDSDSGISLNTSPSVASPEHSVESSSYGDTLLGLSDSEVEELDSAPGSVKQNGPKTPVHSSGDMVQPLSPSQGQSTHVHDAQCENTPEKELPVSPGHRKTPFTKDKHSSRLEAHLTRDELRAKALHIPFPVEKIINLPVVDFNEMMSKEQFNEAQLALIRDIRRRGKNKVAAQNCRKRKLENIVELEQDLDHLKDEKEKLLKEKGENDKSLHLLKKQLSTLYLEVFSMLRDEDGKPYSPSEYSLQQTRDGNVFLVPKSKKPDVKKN

Luciferin 4-monooxygenase, sequence (P08659 whole entry): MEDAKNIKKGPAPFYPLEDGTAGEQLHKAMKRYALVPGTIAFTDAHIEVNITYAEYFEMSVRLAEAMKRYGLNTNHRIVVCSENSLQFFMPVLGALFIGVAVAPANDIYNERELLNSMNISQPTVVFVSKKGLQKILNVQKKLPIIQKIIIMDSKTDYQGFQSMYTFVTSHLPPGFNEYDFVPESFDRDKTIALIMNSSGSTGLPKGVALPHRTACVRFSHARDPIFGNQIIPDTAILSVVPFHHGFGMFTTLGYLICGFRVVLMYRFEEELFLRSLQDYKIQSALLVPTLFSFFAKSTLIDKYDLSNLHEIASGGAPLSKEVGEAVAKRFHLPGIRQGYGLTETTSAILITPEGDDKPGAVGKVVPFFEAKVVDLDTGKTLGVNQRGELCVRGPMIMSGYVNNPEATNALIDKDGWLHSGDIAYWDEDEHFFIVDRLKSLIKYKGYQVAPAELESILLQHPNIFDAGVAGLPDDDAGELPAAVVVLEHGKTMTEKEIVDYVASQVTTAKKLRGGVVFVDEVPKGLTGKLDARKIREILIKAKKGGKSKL

Structure (SMILES) | Activity [1] | Activity [2] | fold change (FC) [2]
COc1cccc(/C=C/C(=O)CC(=O)/C=C/c2cccc(OC)c2OC)c1OC | Non-Toxic |  | 
O=C1/C(=C/c2c(Cl)cccc2Cl)CCC/C1=C\c1c(Cl)cccc1Cl | Non-Toxic | Active | 
COc1cc(/C=C2\CN(C)C/C(=C\c3cc(OC)cc(OC)c3)C2=O)cc(OC)c1 | Non-Toxic |  | 
O=C(/C=C/c1ccccc1)/C=C/c1ccccc1 | Non-Toxic | Active | 
O=C(/C=C/c1ccc(Cl)cc1)CC(=O)/C=C/c1ccc(Cl)cc1 | Non-Toxic | inactive | 
COc1ccc(/C=C2\CN(C)C/C(=C\c3ccc(OC)cc3)C2=O)cc1 | Non-Toxic |  | 
COc1ccc(/C=C2\CCC/C(=C\c3ccc(OC)c(OC)c3OC)C2=O)c(OC)c1OC | Non-Toxic |  | 
CCc1c(/C=C/C(=O)/C=C/c2ccc(OC)c(OC)c2CC)ccc(OC)c1OC | Non-Toxic | Active | 
O=C(/C=C(\O)c1ccccc1)c1ccccc1 | Non-Toxic |  | 
COc1ccc(/C=C/C(C)=O)cc1 | Non-Toxic |  | 
Cc1cccc(/C=C2\CN(C)C/C(=C\c3cccc(C)c3)C2=O)c1 | Non-Toxic | Active | 
COc1ccccc1/C=C/C(=O)/C=C/c1ccccc1OC | Non-Toxic |  | 
O=C(/C=C/c1c(Cl)cccc1Cl)/C=C/c1c(Cl)cccc1Cl | Non-Toxic | inactive | 
COc1cccc(/C=C/C(=O)CC(=O)/C=C/c2cccc(OC)c2)c1 | Non-Toxic | Active | 
CC(C(=O)CCc1ccccc1)C(=O)CCc1ccccc1 | Non-Toxic |  | 
O=C(/C=C/c1ccc(Br)cc1)CC(=O)/C=C/c1ccc(Br)cc1 | Non-Toxic | inactive | 
O=C(/C=C/c1ccc(Cl)cc1)/C=C/c1ccc(Cl)cc1 | Non-Toxic | inactive | 
COc1ccc(/C=C2\CCC/C(=C\c3ccc(OC)cc3OC)C2=O)c(OC)c1 | Non-Toxic | inactive | 
O=C(/C=C/c1cccc(O)c1)/C=C/c1cccc(O)c1 | Non-Toxic |  | 
O=C(/C=C/c1ccc(O)cc1)CC(=O)/C=C/c1ccc(O)cc1 [BISDEMETHOXYCURCUMIN] | Non-Toxic | Active | 
COc1ccccc1/C=C1\CCC/C(=C\c2ccccc2OC)C1=O | Non-Toxic | inactive | 
COc1ccc(OC)c(/C=C/C(=O)CC(=O)/C=C/c2cc(OC)ccc2OC)c1 | Non-Toxic | Active | 
COc1cc(/C=C/C(=O)/C=C/c2cc(OC)cc(OC)c2)cc(OC)c1 | Non-Toxic |  | 
CN(C)c1ccc(/C=C/C(=O)/C=C/c2ccc(N(C)C)cc2)cc1 | Non-Toxic | inactive | 
COc1ccc(/C=C2\CN(C)C/C(=C\c3ccc(OC)cc3OC)C2=O)c(OC)c1 | Non-Toxic |  | 
COc1cccc(OC)c1/C=C/C(=O)/C=C/c1c(OC)cccc1OC | Non-Toxic |  | 
COc1ccc(/C=C/C(=O)CC(=O)/C=C/c2ccc(OC)c(O)c2)cc1O | Non-Toxic | Active | 

Structure (SMILES) | Activity [1] | Activity [2] | fold change (FC) [2]
O=C(/C=C/c1ccccc1)/C(Cc1ccccc1)=C(O)/C=C/c1ccccc1 | Non-Toxic |  | 
O=C(CCc1ccccc1)C(Cc1ccccc1)C(=O)CCc1ccccc1 | Non-Toxic |  | 
O=C(/C=C/c1cccc([N+](=O)[O-])c1)CC(=O)/C=C/c1cccc([N+](=O)[O-])c1 | Non-Toxic | inactive | 
COc1cc(/C=C/C(=O)c2ccc(O)c(OC)c2)ccc1O | Non-Toxic | Active | 
N#Cc1ccc(C(=O)/C=C/c2ccccc2)cc1 | Non-Toxic |  | 
COc1ccc(/C=C/C(=O)/C=C/c2ccccc2)cc1 | Non-Toxic |  | 
COc1cc(CCC(=O)C(Cc2ccccc2)C(=O)CCc2ccc(O)c(OC)c2)ccc1O | Non-Toxic |  | 
CC(C)c1ccc(/C=C2\CN(C)C/C(=C\c3ccc(C(C)C)cc3)C2=O)cc1 | Non-Toxic | Active | 
O=C(/C=C/c1ccc(Br)cc1)/C=C/c1ccc(Br)cc1 | Non-Toxic | inactive | 
CC(=O)/C=C/c1ccccc1O | Non-Toxic |  | 
COc1cccc(/C=C2\CN(C)C/C(=C\c3cccc(OC)c3OC)C2=O)c1OC | Non-Toxic |  | 
COc1ccc(/C=C/C(=O)CC(=O)/C=C/c2ccc(OC)c(OC)c2)cc1OC [TETRAMETHOXYCURCUMIN] | Non-Toxic |  | 
O=C(CCc1ccccc1)CCc1ccccc1 | Non-Toxic | inactive | 
CSc1ccc(/C=C2\CN(C)C/C(=C\c3ccc(SC)cc3)C2=O)cc1 | Non-Toxic |  | 
O=C(/C=C/c1ccccc1)c1ccccc1 [CHALCONE] | Non-Toxic | Active | 
CN1C/C(=C\c2cccc(Br)c2)C(=O)/C(=C/c2cccc(Br)c2)C1 | Non-Toxic | Active | 
CCOc1ccc(/C=C2\CN(C)C/C(=C\c3ccc(OCC)cc3)C2=O)cc1 | Non-Toxic |  | 
CN(C)c1ccc(/C=C/C(=O)CC(=O)/C=C/c2ccc(N(C)C)cc2)cc1 | Non-Toxic | inactive | 
COc1ccc(/C=C/C(=O)/C=C/c2ccc(OC)c(OC)c2)cc1OC | Non-Toxic |  | 
COc1ccc(/C=C/C(=O)/C=C/c2ccc(OC)cc2OC)c(OC)c1 | Non-Toxic |  | 
COc1cc(/C=C2\CCC/C(=C\c3ccc(O)c(OC)c3)C2=O)ccc1O [CYCLOVALONE] | Non-Toxic |  | 
C/C(C(=O)/C=C/c1ccccc1)=C(O)\C=C\c1ccccc1 | Non-Toxic |  | 
COc1cc(/C=C2\CCC/C(=C\c3cc(OC)c(OC)c(OC)c3)C2=O)cc(OC)c1OC | Non-Toxic |  | 
COc1cc(OC)c(OC)cc1/C=C/C(=O)/C=C/c1cc(OC)c(OC)cc1OC | Non-Toxic |  | 18.2
O=C(O)c1ccc(/C=C/C(=O)c2ccccc2)cc1 | Non-Toxic | Active | 
COc1ccc(/C=C2\CCC/C(=C\c3ccc(OC)cc3)C2=O)cc1 | Non-Toxic | inactive | 
O=C(/C=C/c1cccc(O)c1)CC(=O)/C=C/c1cccc(O)c1 | Non-Toxic | Active | 

Structure (SMILES) | Activity [1] | Activity [2] | fold change (FC) [2]
COc1ccc(/C=C2\CCC/C(=C\c3ccc(OC)c(OC)c3)C2=O)cc1OC | Non-Toxic |  | 
COc1cc(/C=C2\CN(C)C/C(=C\c3cc(OC)c(OC)c(OC)c3)C2=O)cc(OC)c1OC | Non-Toxic | inactive | 
COc1cc(/C=C/C(=O)/C=C/c2ccc(O)c(OC)c2)ccc1O | Non-Toxic |  | 25.1
COc1cccc(/C=C2\CCC/C(=C\c3cccc(OC)c3)C2=O)c1 | Non-Toxic | Active | 
COc1cc(C(=O)/C=C/c2ccccc2)ccc1O | Non-Toxic | Active | 
O=C1/C(=C/c2cccc(F)c2)CCC/C1=C\c1cccc(F)c1 | Non-Toxic |  | 
COc1cccc(/C=C2\CCC/C(=C\c3cccc(OC)c3OC)C2=O)c1OC | Non-Toxic |  | 
O=C1/C(=C/c2ccc(Br)cc2)CCC/C1=C\c1ccc(Br)cc1 | Non-Toxic |  | 
O=C1/C(=C/c2cccc(O)c2)CCC/C1=C\c1cccc(O)c1 | Non-Toxic |  | 
O=C(O)c1ccc(C(=O)/C=C/c2ccccc2)cc1 | Non-Toxic |  | 
COc1cc(/C=C2\CCC/C(=C\c3cc(OC)cc(OC)c3)C2=O)cc(OC)c1 | Non-Toxic |  | 22.1
O=C(/C=C/c1ccccc1Cl)/C=C/c1ccccc1Cl | Non-Toxic | Active | 
COc1ccccc1/C=C/C(=O)CC(=O)/C=C/c1ccccc1OC | Non-Toxic |  | 
COc1cccc(/C=C2\CN(C)C/C(=C\c3cccc(OC)c3)C2=O)c1 | Non-Toxic |  | 
COc1ccc(/C=C/C(=O)CC(=O)/C=C/c2ccc(OC)cc2OC)c(OC)c1 | Non-Toxic | Active | 
O=C(/C=C/c1ccccc1O)/C=C/c1ccccc1O | Non-Toxic |  | 18.5
COc1cc(/C=C/C(=O)CC(=O)/C=C/c2cc(OC)cc(OC)c2)cc(OC)c1 | Non-Toxic | Active | 
COc1ccc(/C=C/C(=O)CC(=O)/C=C/c2ccc(OC)cc2)cc1 | Non-Toxic | Active | 
COc1cccc(/C=C/C(=O)/C=C/c2cccc(OC)c2OC)c1OC | Non-Toxic |  | 
COc1cc(/C=C/C(=O)/C=C/c2ccc(OC(C)=O)c(OC)c2)ccc1OC(C)=O | Non-Toxic |  | 
CC(=O)Oc1ccc(/C=C/C(=O)/C=C/c2ccc(OC(C)=O)cc2)cc1 | Non-Toxic |  | 
COc1cc(/C=C/C(=O)/C=C/c2ccccc2)ccc1O | Non-Toxic |  | 
COc1ccc(OC)c(/C=C2\CCC/C(=C\c3cc(OC)ccc3OC)C2=O)c1 | Non-Toxic |  | 
COc1ccc(/C=C/C(=O)/C=C/c2ccc(OC)c(O)c2)cc1O | Non-Toxic |  | 
COc1ccc(/C=C2\CN(C)C/C(=C\c3ccc(OC)c(OC)c3OC)C2=O)c(OC)c1OC | Non-Toxic |  | 
